“Also recorded” adds a separate entry of the source. Where two headings read alike, the source gives them in different places.
Assays:
Format in all cases: biochemical, Talaromyces emersonii
[1] = tested on: EG V, EG VI and EG VII; test: Effects of metal ions, reagents, phenolics and glycosides stated for all three enzymes; conditions: for effect of phenolic substances on enzyme activity: pre-incubation of enzyme with compound in the absence of substrate
Procedure: (§1) Substrate specificity on various polysaccharides and synthetic glycosides was evaluated by 15 measuring activity against a wide variety of carbohydrates (BBG, lichenan, CMC, other polysaccharides and synthetic glycosides) using the normal β-glucanase assay procedure. • Effects Of Metal Ions, Chemical Modification Reagents And Potential Inhibitors A range of monovalent, divalent and heavy metal ions, at final assay concentrations of 1.0 mM, were investigated for their potential effects on the activities of EG V, EG VI and EG VII, by incubating the enzymes with the chemicals and then conducting the normal enzyme assay. Finally, the inhibitor effects of glycosides, such as disaccharides, lactones and flavanoid glycosides on the purified enzymes were examined. Specified concentrations of each glycoside were included in normal assay cocktails and residual activity determined by comparison with controls (no glycoside present).
(§2) Activity was expressed as a % relative to a control (no metal ion present in incubation mixture). In general, heavy metal ions are thought to inactivate enzymes by forming covalent salts with cysteine, histidine or carboxyl groups. […] A selection of reagents known to modify amino acid R-groups in proteins were tested for their effects on EG V, EG VI and EG VII, both in the absence and presence of substrate (substrate-protective effects could be observed in this manner) (see Table 6).

[2] = tested on: EG V; test: Effects of metal ions, chemical modification reagents, detergents and potential inhibitors on EG V; design: decrease in activity of EG V by detergent / loss of activity of EG V by detergent: concentration or dose not given beside the values; conditions: for EG V activity, Enzyme + reagent (control = 100.0): Preincubation of enzyme with reagent for 30 min (50 C) prior to addition of substrate; for EG V activity, Substrate + reagent (control = 100.0): Preincubation of substrate with reagent for 30 min (50 C) prior to addition of enzyme; for EG V activity after protection experiment (control = 100.0): 1st incubation (30 min) enzyme + reagent, 2nd incubation (30 min) + NBS
Procedure: as §1, §2

[3] = tested on: EG VII; test: Effects of metal ions, chemical modification reagents, detergents and potential inhibitors on EG VII; conditions: for EG VII activity, Enzyme + reagent (control = 100.0): Preincubation of enzyme with reagent for 30 min (50 C) prior to addition of substrate; for EG VII activity, Substrate + reagent (control = 100.0): Preincubation of substrate with reagent for 30 min (50 C) prior to addition of enzyme; for EG VII activity after protection experiment (control = 100.0): 1st incubation (30 min) enzyme + reagent, 2nd incubation (30 min) + NBS
Procedure: as §1, §2

[4] = tested on: EG VI; test: Effects of metal ions, chemical modification reagents, detergents and potential inhibitors on EG VI; conditions: for EV VI activity, Enzyme + reagent (control = 100.0): Preincubation of enzyme with reagent for 30 min (50 C) prior to addition of substrate; for EGVI activity, Substrate + reagent (control = 100.0): Preincubation of substrate with reagent for 30 min (50 C) prior to addition of enzyme; for increase in activity of EG VI: 1 mM metal ion, relative to control without metal ion; for EGVI activity after protection experiment (control = 100.0): 1st incubation (30 min) enzyme + reagent, 2nd incubation (30 min) + NBS
Procedure: as §1, §2

[5] = 1 mM metal ion, relative to control without metal ion
[6] = pre-incubated with enzyme in advance of the addition of substrate

Molecule | EG V activity, Enzyme + reagent (control = 100.0) [2] | EG V activity, Substrate + reagent (control = 100.0) [2] | EG VII activity, Enzyme + reagent (control = 100.0) [3] | EG VII activity, Substrate + reagent (control = 100.0) [3] | EV VI activity, Enzyme + reagent (control = 100.0) [4] | EGVI activity, Substrate + reagent (control = 100.0) [4] | also measured
CCN1C(=O)C=CC1=O [N-ethylmaleimide] | – | – | – | – | – | – | inhibition by sulphydryl reagents ([1]; in the presence or absence of substrate): little or no inhibition
COc1cc(C(=O)O)cc(OC)c1O [syringic acid] | – | – | – | – | – | – | effect of phenolic substances on enzyme activity [1]: did not have a marked inhibitory effect; also recorded: markedly activated
[Cl-].c1ccc(-c2nn(-c3ccccc3)[n+](-c3ccccc3)n2)cc1 [2,3,5-Triphenyltetrazolium Chloride] | 97.5 | 89.1 | 98.5 | 100.0 | 97.6 | 97.4 | –
O=c1ccc2cc(O[C@@H]3O[C@H](CO)[C@@H](O)[C@H](O)[C@H]3O)c(O)cc2o1 [esculin] | – | – | – | – | – | – | effect of glycosides/disaccharides on activity of EG V-VII [1]: no apparent effect
OC[C@H]1O[C@@](CO)(O[C@H]2O[C@H](CO)[C@@H](O)[C@H](O)[C@H]2O)[C@@H](O)[C@@H]1O [sucrose] | – | – | – | – | – | – | effect of glycosides/disaccharides on activity of EG V-VII [1]: no apparent effect
[Ag+] [Ag^+] | – | – | – | – | – | – | effect of metal ion on activity of all three enzymes ([1]; 1 mM metal ion): markedly decreased activity
O=C(OC[C@H]1O[C@@H](OC(=O)c2cc(O)c(O)c(OC(=O)c3cc(O)c(O)c(O)c3)c2)[C@H](OC(=O)c2cc(O)c(O)c(OC(=O)c3cc(O)c(O)c(O)c3)c2)[C@@H](OC(=O)c2cc(O)c(O)c(OC(=O)c3cc(O)c(O)c(O)c3)c2)[C@@H]1OC(=O)c1cc(O)c(O)c(OC(=O)c2cc(O)c(O)c(O)c2)c1)c1cc(O)c(O)c(OC(=O)c2cc(O)c(O)c(O)c2)c1 [tannic acid] | – | – | – | – | – | – | effect of phenolic substances on enzyme activity [1]: potent inhibitor
[BH4-].[Na+] [Sodium borohydride] | 96.1 | 81.5 | 194.0 | 82.8 | 125.0 | 104.8 | –
O=Cc1ccccc1C=O [o-Phthaldialdehyde] | 106.1 | 94.6 | 155.0 | 98.8 | 100.0 | 139.0 | –
[K+] [K^+] | – | – | – | – | – | – | increase in activity of EG VII [3]: 20%
[Ca+2] [Ca^2+] | – | – | – | – | – | – | decrease in activity of EG V [2, 5]: 21.5-24.6%; enhancement of EG VII activity by SO4^2− salt relative to corresponding Cl^− salt ([3]; 1 mM): ~2 fold; increase in activity of EG VI [4]: 10%
OC(CS)C(O)CS (racemic) [DL-DTT] | 218.9 | 264.3 | 575.0 | 348.6 | 514.3 | 915.5 | EG V activity after protection experiment (control = 100.0) [2]: 204.3; EG VII activity after protection experiment (control = 100.0) [3]: 94.6; EGVI activity after protection experiment (control = 100.0) [4]: 140.0
O=C(O)/C=C/c1ccc(O)c(O)c1 [caffeic acid] | – | – | – | – | – | – | effect of phenolic substances on enzyme activity [1]: did not have a marked inhibitory effect; effect of phenolic substances on enzyme activity ([1]; listed as cafeic acid): markedly activated
OC[C@H]1O[C@H](O[C@H]2[C@H](O)[C@@H](O)[C@H](O)O[C@@H]2CO)[C@H](O)[C@@H](O)[C@@H]1O [maltose] | – | – | – | – | – | – | effect of glycosides/disaccharides on activity of EG V-VII [1]: no apparent effect
O[C@H](CS)[C@@H](O)CS [Dithioerythritol] | 270.6 | 271.9 | 773.8 | 360.9 | 657.2 | 917.90 | –
COc1cc(/C=C/C(=O)O)ccc1O [ferulic acid] | – | – | – | – | – | – | effect of phenolic substances on enzyme activity [1]: did not have a marked inhibitory effect
C[S+](C)[O-] [Dimethylsuphoxide] | 125.5 | 93.6 | 194.0 | 100.0 | 124.3 | 141.7 | –
N[C@@H](CS)C(=O)O [Cysteine] | 163.8 | 237.8 | 196.5 | 367.7 | 170.4 | 370.20 | EG V activity after protection experiment (control = 100.0) [2]: 117.0; EG VII activity after protection experiment (control = 100.0) [3]: 167.0; EGVI activity after protection experiment (control = 100.0) [4]: 217.0
OCc1ccccc1O[C@@H]1O[C@H](CO)[C@@H](O)[C@H](O)[C@H]1O [salicin] | – | – | – | – | – | – | effect of glycosides/disaccharides on activity of EG V-VII [1]: no apparent effect

Molecule | EG V activity, Enzyme + reagent (control = 100.0) [2] | EG V activity, Substrate + reagent (control = 100.0) [2] | EG VII activity, Enzyme + reagent (control = 100.0) [3] | EG VII activity, Substrate + reagent (control = 100.0) [3] | EV VI activity, Enzyme + reagent (control = 100.0) [4] | EGVI activity, Substrate + reagent (control = 100.0) [4] | also measured
[Ba+2] [Ba^2+] | – | – | – | – | – | – | decrease in activity of EG V [2, 5]: 16.5%; increase in activity of EG VI [4]: 37.6%
OC[C@H]1O[C@H](OCC2O[C@@H](O)[C@H](O)[C@@H](O)[C@@H]2O)[C@H](O)[C@@H](O)[C@H]1O (stereo partly shown) [melibiose] | – | – | – | – | – | – | effect of glycosides/disaccharides on activity of EG V-VII [1]: no apparent effect
O=C(O)/C=C/c1ccccc1O [o-coumaric acid] | – | – | – | – | – | – | effect of phenolic substances on enzyme activity [1]: did not have a marked inhibitory effect
OC[C@@H](O)[C@@H](O)[C@H](O)[C@@H](O)CO [sorbitol] | – | – | – | – | – | – | effect of glycosides/disaccharides on activity of EG V-VII [1]: no apparent effect
Tween 80 | – | – | – | – | – | – | decrease in activity of EG V by detergent [2, 6]: 30.8%; loss of activity of EG V by detergent ([2]; simultaneous incubation with substrate): 34.2%
C[C@H](CCC(=O)NCCS(=O)(=O)O)[C@H]1CC[C@H]2[C@@H]3[C@H](O)C[C@@H]4C[C@H](O)CC[C@]4(C)[C@H]3C[C@H](O)[C@]12C [taurocholic acid] | – | – | – | – | – | – | decrease in activity of EG V by detergent [2]: 47.7%
Tween 20 | – | – | – | – | – | – | decrease in activity of EG V by detergent [2, 6]: 12.7%
Oc1cc(O)c2c(c1)O[C@H](c1ccc(O)c(O)c1)[C@@H](O)C2 [(+)catechin] | – | – | – | – | – | – | effect of phenolic substances on enzyme activity [1]: did not have a marked inhibitory effect
OC[C@H]1O[C@@H](Oc2ccc(O)cc2)[C@H](O)[C@@H](O)[C@@H]1O [arbutin] | – | – | – | – | – | – | effect of glycosides/disaccharides on activity of EG V-VII [1]: no apparent effect
Oc1cccc(-c2ccccc2)c1 [m-phenylphenol] | – | – | – | – | – | – | effect of phenolic substances on enzyme activity [1]: did not have a marked inhibitory effect
O=C(O)c1cc[c]([Hg][Cl])cc1 [p-Chloromercuribenzoate] | 125.4 | 89.7 | 105.4 | 91.6 | 115.4 | 107.1 | –
O=C1CCC(=O)N1Br [N-Bromosuccinimide (NBS), N-Bromosuccinimide] | 0.0 | 0.0 | 0.0 | 0.0 | 0.0 | 0.0 | EG V activity after protection experiment (control = 100.0) [2]: 0.0; EG VII activity after protection experiment (control = 100.0) [3]: 0.0; EGVI activity after protection experiment (control = 100.0) [4]: 0.0
O=C(O)c1ccc(O)c(O)c1 [protocatechuic acid] | – | – | – | – | – | – | effect of phenolic substances on enzyme activity [1]: markedly activated
O=C(O)CS [Thioglycolic acid] | 211.1 | 148.1 | 188.1 | 150.0 | 187.1 | 269.0 | –
C[C@H](CCC(=O)NCCS(=O)(=O)O)[C@H]1CC[C@H]2[C@@H]3CC[C@@H]4C[C@H](O)CC[C@]4(C)[C@H]3C[C@H](O)[C@]12C [taurodeoxycholic acid] | – | – | – | – | – | – | decrease in activity of EG V by detergent [2, 6]: 22.7%
[Na+] [Na^+] | – | – | – | – | – | – | increase in activity of EG V [2, 5]: > 39%
CC[n+]1ccc(-c2cccc(S(=O)(=O)[O-])c2)o1 [Woodward's Reagent K] | 162.7 | 121.1 | 305.9 | 143.0 | 280.0 | 266.7 | –
OC[C@H]1O[C@@H](O[C@H]2[C@H](O)[C@@H](O)C(O)O[C@@H]2CO)[C@H](O)[C@@H](O)[C@H]1O (stereo partly shown) [lactose] | – | – | – | – | – | – | concentrations inhibiting EG V [2]: > 75 mM
[Na+].[O-][I+3]([O-])([O-])[O-] [Sodium periodate] | 181.0 | 283.3 | 300.0 | 469.7 | 357.1 | 1001.2 | –

Source: patent US20100028485A1, “TALAROMYCES EMERSONII ENZYME SYSTEMS” (priority 2006, published 2010)
